This note sets out measurements from the supplement of paper PMC10949913.

In one assay the test system is NCI-H295R. Put plainly: area under concentration-response curve (viability) (AUC (a.u.)); higher = less active. Conditions: 48 h. The method, boiled down: (§1)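 For each of three adrenocortical carcinoma cell lines, 500–1,000 cells/well were placed in 5 µL medium in 1,536-well plates. A 23 nL volume of every library compound was added at 11 concentrations. Following 48 h, a 15-minute room-temperature CellTiter-Glo step preceded luminescence reading, with signals normalised per plate to vehicle and empty-well controls. AC50 and area under the curve were derived by curve fitting, retaining only inhibitory or non-responding curve classes.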

The subject of another assay is CU-ACC2. The assay is described as above. The settings on record: 48 h. A digest of the protocol: as §1

Each structure is given as a SMILES string.

Consider `C/C(NNC(=O)c1cccc([S+](=O)([O-])N2CCOCC2)c1)=C1\C=C(Cl)C=CC1=O`, for which the “area under concentration-response curve” value worked out at 545 in the assay on NCI-H295R and 585 in the assay with CU-ACC2.
For `NC[C@H](O)c1ccc(O)c(O)c1` the same measures were 599 and 636.
For `CC[S+]([O-])(=O)N1CCC(CC1)C(C)[N]2C(=C(C(=O)NC\C3=C(OC)\C=C(\C)NC3=O)C4=C2C=CC=C4)C` (configuration not stated), the “area under concentration-response curve” value with NCI-H295R amounted to 511; with CU-ACC2, 562.
For `C[S+](=O)([O-])c1ccc(-c2cnc(N)c(C(=O)Nc3ccccc3)n2)cc1`, the “area under concentration-response curve” value with NCI-H295R came out at 534; in the assay with CU-ACC2, 473.
For `CCCC[N+]1(C)[C@@H]2CC(OC(=O)[C@H](CO)c3ccccc3)C[C@H]1[C@@H]1O[C@@H]12` (some centres not stated) the same measures were 568 and 630.
On to `C=Cc1cc(O)cc2nc(-c3ccc(O)c(F)c3)oc12`, for which the “area under concentration-response curve” value in the assay on NCI-H295R amounted to 550; in the assay on CU-ACC2, 587.
For `CN(C(Cc1ccc(OS(=O)(=O)c2cccc3cnccc23)cc1)C(=O)N1CCN(c2ccccc2)CC1)S(=O)(=O)c1cccc2cnccc12` (configuration not stated) the same measures were 576 and 627.
For `Nc1nc(NCCNc2ncc(-n3ccnc3)c(-c3ccc(Cl)cc3Cl)n2)ccc1[N+](=O)[O-]`, the “area under concentration-response curve” value with NCI-H295R turned out to be 536; in the assay with CU-ACC2 it was 485.
Regarding `CCCCOc1ccc(CC(=O)NO)cc1`, the “area under concentration-response curve” value is 573 with NCI-H295R and 631 in the assay on CU-ACC2.
In the case of `C/C(=N\NC(=O)c1cccc([S+](=O)([O-])N2CCOCC2)c1)c1cc(Cl)ccc1O`, the “area under concentration-response curve” value amounted to 597 in the assay with NCI-H295R and 640 with CU-ACC2.
For `CNC(=O)c1ccc2cc(C3(O)CCn4cncc43)ccc2c1` (configuration not stated) the same measures were 556 and 599.
For `O=C(NC[C@H](O)CN1CCc2ccccc2C1)c1cc(NC2COC2)ncn1` the same measures were 429 and 367.
Taken in the same sequence, the figures for `CC(NC(C)(C)C)C(=O)c1cccc(Cl)c1` (configuration not stated) were 509 and 526.
Take `NC/1=N/C(=O)N/C=C1F`: the “area under concentration-response curve” value in the assay with NCI-H295R was determined as 595; in the assay with CU-ACC2 it was 633.
For the compound `O=C(c1ccc(F)cc1)N1CCC[C@H](c2nc(-c3ccc(F)cc3)no2)C1`, the “area under concentration-response curve” value turned out to be 576 in the assay with NCI-H295R and 624 in the assay on CU-ACC2.
Taken in the same sequence, the figures for `CC[C@H](NC1=C2[NH]C=NC2=NC=N1)/C3=C(/C(=O)C4=CC=CC=C4O3)C5=CC=CC(=C5)F` were 488 and 432.
For `COc1cc2ncnc(Nc3cccc(Cl)c3F)c2cc1OC(=O)N1CCN(C)C[C@H]1C` the same measures were 531 and 610.
Taken in the same sequence, the figures for `Cc1cnc(-c2ccccc2C(C)C)nc1NCc1ccc(-n2ccnn2)cc1` were 563 and 614.
Take `O=NN(CCCl)C(=O)NC1CCCCC1`: the figures for the “area under concentration-response curve” value with NCI-H295R and in the assay on CU-ACC2 were 538 and 503, respectively.
Turning to `CC(=O)Oc1ccccc1C(=O)Nc1ncc([N+](=O)[O-])s1`, the figures for the “area under concentration-response curve” value in the assay on NCI-H295R and in the assay with CU-ACC2 were 590 and 634, respectively.
Taken in the same sequence, the figures for `COC1=CC2=C(C=C1OCCCN3CCCC3)\N=C(N)/C24CCC4` were 547 and 578.
For `Nc1nc(N)c2nc(-c3cccc(Cl)c3)c(N)nc2n1` the same measures were 520 and 596.
On to `O=C(O)c1cnn(-c2nc3cc(Cl)c(OC(F)(F)F)cc3[nH]2)c1`, for which the “area under concentration-response curve” value in the assay with NCI-H295R amounted to 548; in the assay with CU-ACC2, 605.
As to `CC1CC2=CC=CC=C2N1C(=O)C\C3=N\C(=O)\C=C(/N3)N4CCOCC4` (configuration not stated), the “area under concentration-response curve” value in the assay on NCI-H295R is 548; in the assay on CU-ACC2 it was 579.
Taken in the same sequence, the figures for `NC(=S)N/N=C/c1ncccc1N` were 440 and 442.
For `CCC(c1ccc(O)cc1)C(CC)c1ccc(O)cc1` (configuration not stated) the same measures were 607 and 656.
For `C[C@]12CCC3c4ccc(O)cc4CCC3C1CCC2=O` (some centres not stated) the same measures were 508 and 565.
As to `O=C(NC[C@H](O)CN1CCc2ccccc2C1)c1ccnc(NC2CCC2)c1`, the “area under concentration-response curve” value in the assay with NCI-H295R amounted to 539; in the assay with CU-ACC2 it was 535.
For `NC(=O)c1ccc(N(C(N)=O)c2c(F)cccc2F)nc1-c1ccc(F)cc1F` the same measures were 471 and 440.
With `CCc1ccc2nc(Nc3cc(Cc4ccccc4)nc(N[C@H]4CC[C@H](O)CC4)n3)sc2c1`, the “area under concentration-response curve” value in the assay with NCI-H295R stood at 580; in the assay with CU-ACC2, 620.
On to `CC[C@H](NC(=O)[C@H](C)NC)C(=O)N1C[C@@H](O)C[C@H]1Cc1c(-c2[nH]c3cc(F)ccc3c2C[C@@H]2C[C@H](O)CN2C(=O)[C@H](CC)NC(=O)[C@H](C)NC)[nH]c2cc(F)ccc12`, for which the “area under concentration-response curve” value in the assay on NCI-H295R worked out at 610; in the assay with CU-ACC2, 602.
Taken in the same sequence, the figures for `CC[C@@](C)(Nc1ccnc(-c2c[nH]c3ncccc23)n1)C(=O)NCC(F)(F)F` were 539 and 589.
For `CN1CCN(c2ccc([N+](=O)[O-])c3no[n+]([O-])c23)CC1` the same measures were 583 and 630.
Turning to `CCc1cccc(CC)c1NC(=O)N1Cc2[nH]nc(NC(=O)c3ccc(N4CCN(C)CC4)cc3)c2C1`, the figures for the “area under concentration-response curve” value with NCI-H295R and in the assay with CU-ACC2 were 597 and 614, respectively.
Turning to `Cn1c(-c2ccccc2C(F)(F)F)nnc1C12CCC(c3noc(C4CC(F)(F)C4)n3)(CC1)CC2`, the “area under concentration-response curve” value in the assay on NCI-H295R was determined as 546; with CU-ACC2, 594.
For `NC(=O)C/1=C(O)/[C@]2(O)[C@@H](C[C@@H]\3CC4=C(C(=CC=C4)O)\C(=C3C2=O)O)CC1=O`, the “area under concentration-response curve” value with NCI-H295R was 586; in the assay on CU-ACC2 it was 640.
For `O=C(O)CCNc1cc(N2CCc3ccccc3CC2)nc(-c2ccccn2)n1` the same measures were 490 and 486.
Taken in the same sequence, the figures for `CC/1=C/2C[C@H]3C(=C)CCC[C@]3(C)/C=C2OC1=O` were 524 and 593.
For `CCN(CC)CCCC(C)Nc1nc(C)cc(Nc2ccc3nc(C)cc(N)c3c2)n1` (configuration not stated) the same measures were 507 and 478.
As to `CC/1=N/C2=CC=CC(=C2C(=O)N1C3CCC(=O)NC3=O)N` (configuration not stated), the “area under concentration-response curve” value turned out to be 575 in the assay on NCI-H295R and 635 in the assay with CU-ACC2.
Taken in the same sequence, the figures for `CC/C(=C(\c1ccccc1)c1ccc(OCCN(C)C)cc1)c1ccccc1` were 554 and 455.
With `O=C1c2c(O)cc(O)cc2O[C@H](c2ccc(O)c(O)c2)[C@H]1O`, the “area under concentration-response curve” value stood at 539 in the assay on NCI-H295R and 583 with CU-ACC2.
In the case of `Cc1cc(NC(=O)Nc2ccc(N(C)C)cc2)c2cc(F)cc(F)c2n1`, the “area under concentration-response curve” value with NCI-H295R came to 613; in the assay with CU-ACC2, 667.
Taken in the same sequence, the figures for `CN1C(=O)COc2c(C(=O)NC3CN4CCC3CC4)cc(Cl)cc21` (configuration not stated) were 533 and 550.
For `O=C(NC[C@H]1CN(c2ccc(N3CCOCC3=O)cc2)C(=O)O1)c1ccc(Cl)s1` the same measures were 557 and 605.
Turning to `CNC(=O)c1ccc(N2C(=S)N(c3ccc(C#N)c(C(F)(F)F)c3)C(=O)C2(C)C)cc1F`, the “area under concentration-response curve” value in the assay on NCI-H295R is 499; with CU-ACC2, 559.
Regarding `COc1ccc2[nH]c([S+]([O-])Cc3ncc(C)c(OC)c3C)nc2c1` (configuration not stated), the “area under concentration-response curve” value with NCI-H295R amounted to 576; in the assay with CU-ACC2, 624.
Taken in the same sequence, the figures for `NC/1=N/C2=C(N=C[N]2[C@H]3C[C@H](O)[C@@H](CO)C3=C)C(=O)N1` were 521 and 589.
Taken in the same sequence, the figures for `CC[C@H](NC1=C2N=C[NH]C2=NC=N1)C/3=N/C4=C(C(=CC=C4)F)C(=O)N3C5=CC=CC=C5` were 536 and 582.
Taken in the same sequence, the figures for `Cc1ccc(NC(=O)[C@H]2CCCN(C(=O)c3c(C)cccc3F)[C@H]2c2ccc(NC3CCCC3)cc2)cc1C(F)(F)F` were 521 and 561.
Consider `Cc1c(-c2c(-c3ccc(F)o3)sc3ncnc(O[C@@H](Cc4ccccc4OCc4ccnn4CC(F)(F)F)C(=O)O)c23)ccc(OCCN2CCN(C)CC2)c1Cl`, for which the entries for the “area under concentration-response curve” value in the assay on NCI-H295R and with CU-ACC2 were 529 and 600, respectively.
